Experimental data from US20140294729A1, “METHODS FOR IDENTIFICATION AND USE OF AGENTS TARGETING CANCER STEM CELLS” (Whitehead Institute for Biomedical Research, priority 2008, published 2014).
“Also recorded” adds a separate entry of the source.

Legend:
[1] = tested on: SUM159 breast cancer cells; experiment: In vivo tumor formation by SUM159 breast cancer cells in treated mice; conditions: FIG. 15A
Experimental: FIG. 15A depicts in vivo tumor formation by SUM159 breast cancer cells in mice that were treated with salinomycin, paclitaxel or vehicle. […] FIG. 15B depicts the mammosphere-forming potential of cancer cells obtained from SUM159 tumors from salinomycin, paclitaxel or DMSO-treated mice.
(§1) The mammosphere forming potential of parental HMLER cells treated with either DMSO, paclitaxel (taxol) or salinomycin was also examined at various doses. Salinomycin, but not paclitaxel inhibited mammosphere formation in MCF7Ras or 4T1 cells. (FIG. 14.) The effects of salinomycin, paclitaxel or vehicle control treatments on in vivo tumor formation by SUM159 breast cancer cells injected in mice was determined. […] (FIG. 15A.) The mammosphere-forming potential of cancer cells obtained from SUM159 tumors from salinomycin, paclitaxel or DMSO-treated mice was also determined (FIG. 15B.)

[2] = tested on: 4T1 cells; experiment: Mammosphere-forming potential of treated 4T1 cells; type: cell-based; conditions: FIG. 14
Experimental: (§2) FIG. 14A depicts the mammosphere forming potential of parental HMLER cells treated with either DMSO, paclitaxel (taxol) or salinomycin at the specified doses. FIG. 14B depicts MCF7Ras or 4T1 cells that were treated with DMSO, paclitaxel or salinomycin. Mammosphere-forming potential is shown below.
(§3) Mammosphere culture was performed as described (Dontu et al., 2003), except that the culture medium contained 0.9% methyl cellulose (Stem cell technologies) to prevent cell aggregation. […] were plated per well in 96-well plates. The mammospheres were cultured for 7-10 days and then photographed and counted.
as §1

[3] = tested on: HMLER cells; experiment: FACS of the CD44+/CD24- CSC population in treated HMLER cells; type: cell-based, human
Experimental: (§4) FIGS. 6A and 6B depict effects of salinomycin on the CSC population in HMLER cell line. (FIG. 6A) HMLER cells were treated with vehicle control (dmso), salinomycin or paclitaxel at the indicated concentrations for 15 days. FACS analysis were performed at the end of treatment to gauge the CD44+/CD24− CSC population (right panels). Note that salinomycin decreases the CD44+/CD24− population from a basal of 4.9% to 0.2%. Treated cultures were also subjected to the mammosphere formation assay (left panels). Number of mammopsheres formed per 1000 cells from each culture are indicated below the representative photographs of assay wells. (FIG. 6B) Growth rates of HMLER cultures after treatment with vehicle control (dmso), salinomycin or paclitaxel at the indicated concentrations in (A) for 15 days.
We then turned to the critical question of whether the compounds had the general ability to inhibit CSCs in breast cancer cell lines. […] We next compared the effects of salinomycin, control vehicle DMSO and paclitaxel on HMLER cells. […] The CD44+/CD24− fraction was thus 360-fold lower following treatment with salinomycin than with paclitaxel (FIG. 6A). Proliferation of the bulk population was not inhibited following treatment with salinomycin relative to either vehicle- or paclitaxel-treatment (FIG. 6B).
(§5) The anti-CD44 (clone G44-26) antibody conjugated to APC and the anti-CD24 antibody (clone ML5) conjugated to PE used for FACS analysis were obtained from BD Bioscience and used according to the manufacturer's instructions. Propidium Iodide (5 ug/ml) was included in the staining protocol to distinguish live cells.

[4] = tested on: HMLER cells; experiment: Mammosphere formation assay of treated HMLER cells; type: cell-based, human
Experimental: as §4
We examined the ability of breast cancer cells to form mammospheres following treatment with salinomycin.
as §3

[5] = tested on: CSCs in breast cancer cell populations; experiment: In vivo tumor-seeding ability after in vitro drug treatment (serial dilution, subcutaneous injection); set-up: species or system NOD/SCID mice
Experimental: Finally, we also directly assessed the functional presence of CSCs by assaying in vivo tumor-seeding ability following drug treatment. Cells were treated in vitro for 5 days and then injected subcutaneously into NOD/SCID mice. […] The proportion of functional CSCs was thus reduced by 1000-fold following salinomycin treatment compared to paclitaxel treatment.
(§6) To directly evaluate the effect of salinomycin on cancer stem cell populations, we functionally assayed for cancer stem cell activity in salinomycin, taxol, or DMSO-treated cultures.
We have established several downstream assays for the follow-up evaluation of screen hits with respect to their effects on cancer stem cells: (1) Treat cells in culture for a period of time with screen hits (e.g., compounds, compositions, antibodies, shRNAs, etc.), including the necessary controls, and then allow the cells to recover for a period (e.g., up to 12 hours, up to 24 hours, up to 48 hours, up to 72 hours etc.), and then perform FACS with markers that identify populations enriched for cancer stem cells (for example, but not limited to, CD44+/CD24− in the case of breast cancer). (2) Treat cells in culture for a period of time with screen hits, allow them to recover for a prescribed period of time, and then perform colony formation assays in suspension in the absence of chemical compound (for breast cancer cells, these assays are referred to as mammosphere formation assays). (3) Treat cells in culture for a period of time with screen hits, allow them to recover for a prescribed period of time, and then inject cells at various cell numbers subcutaneously into immunocompromised animals and evaluate the frequency of tumor formation. The number of injected cells could include 10̂6, 10̂5, 10̂4, 10̂3, and 10̂2 cells. Using follow-up assays, such as those disclosed herein, one can evaluate whether or not a screen hit (or any drug with potential CSC-directed activity) is a bonafide inhibitor of cancer stem cells.

[6] = tested on: SUM159 breast cancer cells; experiment: Mammosphere formation assay with SUM159 breast cancer cells; type: cell-based
Experimental: as §6, §3

[7] = tested on: SUM159 cells; experiment: FACS of the CD44hi/CD24lo fraction in treated SUM159 cells; type: cell-based; conditions: for percent of cells in the CD44hi/CD2410 fraction relative to DMSO controls: FIGS. 5C and 5D
From the text: FIG. 5A depicts flow cytometry analysis of Sum159, MDA-MB-231 and T47D cell lines with respect to cell surface expression of CD44 and CD24. Note that while the majority of cells in Sum159 and MDA-MB-231 line contain large amounts of CSCs, T47D cells have very few such cells. FIG. 5B depicts dose response curves of Sum159, MDA-MB-231 and T47D cell treated with Salinomycin.
To further characterize the effects of compound treatment on cancer cells, we conducted FACS analyses on SUM159 cells treated with salinomycin, abamectin, taxol, or DMSO.
as §5

[8] = tested on: MCF7Ras cells; experiment: Mammosphere-forming potential of treated MCF7Ras cells; type: cell-based; conditions: FIG. 14
Experimental: as §2, §3, §1

SMILES | tumor volume / tumor growth compared with vehicle control [1] | mammosphere formation [2] | CD44+/CD24− population after treatment (basal 4.9%) ([3]; 15 days) [%] | CD44+/CD24− fraction lower following salinomycin than with paclitaxel ([3]; FIG. 6A) [fold] | decrease of the proportion of CD44+/CD24− cells relative to vehicle-treated controls ([3]; FIG. 6A) [fold] | decrease in the number of mammospheres relative to controls ([4]; FIG. 6A) [fold] | decrease in tumor-seeding ability (CSCs) relative to vehicle/control treatment ([5]; cells treated in vitro for 5 days, injected subcutaneously, data not shown) [fold] | CSC functional activity / CSC number in tumor-formation dilution series relative to DMSO-treated controls ([5]; mouse, in vivo) | reduction of functional CSCs following salinomycin compared to paclitaxel treatment ([5]; mouse, in vivo) [fold] | number of cells capable of forming colonies in suspension culture relative to DMSO [6] | increase in the CSC-depleted fraction [7] [fold] | percent of cells in the CD44hi/CD2410 fraction relative to DMSO controls [7] | percent of cells in the CD44hi/CD2410 fraction relative to DMSO controls ([7]; listed as Salinomycin) | mammosphere formation [8] | increase of the CSC-fraction (CD44+/CD24−) ([3]; FIG. 6A) [fold] | mammosphere size [4] | effect on the number of mammospheres ([4]; FIG. 6A) | increase in tumor-seeding ability relative to controls ([5]; cells treated in vitro for 5 days, data not shown) [fold] | CSC functional activity / CSC number in tumor-formation dilution series relative to DMSO-treated controls ([5]; mouse, in vivo, listed as taxol)
CC[C@@H](C(=O)[C@@H](C)[C@@H](O)[C@H](C)[C@@H]1O[C@@H]([C@@H](CC)C(=O)O)CC[C@@H]1C)[C@H]1O[C@]2(C=C[C@@H](O)[C@]3(CC[C@@](C)([C@H]4CC[C@](O)(CC)[C@H](C)O4)O3)O2)[C@H](C)C[C@@H]1C [salinomycin] | reduced tumor volume; also recorded: inhibition of tumor growth | inhibited | 0.2 | 360 | 20 | ~10 | 100 | significantly reduced | 1000 | significantly reduced | ~3 | significantly reduced | decrease in the CSC population | inhibited | – | – | – | – | –
CC(=O)O[C@H]1C(=O)[C@@]2(C)[C@H]([C@H](OC(=O)c3ccccc3)[C@]3(O)C[C@H](OC(=O)[C@H](O)[C@@H](NC(=O)c4ccccc4)c4ccccc4)C(C)=C1C3(C)C)[C@]1(OC(C)=O)CO[C@@H]1C[C@@H]2O [paclitaxel] | reduced tumor volume | not | – | – | – | – | – | induced an increase in CSCs | – | increase | – | did not significantly affect | – | not | 18 | significant increase | neither paclitaxel nor vehicle treatment affected the number of mammospheres | ~10 | opposite effect
